These results are taken from US20090011103A1, “Composition comprising polyphenol” (Conopco, Inc. d/b/a Unilever, priority 2007, published 2009).

Assay [1] deals with mesenteric resistance arteries of SHR. Kind of assay: Reactivity of isolated arteries: dilator effect during contraction induced by 40 mmol/L K+. Also noted: species or system Spontaneously Hypertensive Rats (SHR). On the procedure: Segments of 2nd order mesenteric artery side branches were isolated from 14 weeks old male Spontaneously Hypertensive Rats (SHR). Two stainless-steel wires (diameter 40 μm) were inserted in the lumen of the arterial segments, which were then mounted in organ chambers between an isometric force transducer and a displacement device (Danish Myotechnology by J. P. Trading, Denmark). The organ chambers were filled with Krebs-Ringer bicarbonate solution which was maintained at 37° C. and continuously aerated with 95% O2 and 5% CO2. Before the actual experiments started, arterial segments were stretched to their individual optimal lumen diameter for mechanical performance, i.e. the diameter at which maximal contractile responses to noradrenaline (10 μmol/L) were obtained. In each experiment four second order mesenteric resistance arterial segments from one animal were mounted in individual organ chambers and studied in parallel. […]
For the analysis of the acute effects of the mixtures on K+-induced contraction, increasing concentrations of the mixtures (0.1-100 umol/L) were administered on top of the stable contractions and were left in contact with the arterial segments for 5-7 min to make sure that either no effect or a stable effect was reached. […] In this way, the effects of different exposure times to the mixtures (7, 30 and 90 min) on K+-induced contraction, could be evaluated. […]
Active wall tension (AWT) was calculated by subtracting the resting wall tension.
All contractile responses (AWT in the presence of stimuli, solvent and mixes of ingredients) were next expressed as a percentage of the contractile response (AWT) to 10 uM noradrenaline at the end of the normalisation period, i.e. before exposure of the arterial segments to solvent or mixes of ingredients.
Effects of increasing concentrations of the solvent and of the mixes (0.1 to 100 umol/L) during contractile responses to 40 mmol/L K+, were calculated as % change of the level of pre-contraction. […]

The conditions of assay [2]: meeting abstract of Experimental biology 2007; read-out: vasorelaxing properties, 50% dose; cited from earlier work.

For `O=C(O)C=Cc1ccc(O)cc1` [p-coumaric acid, 3-(4-hydroxyphenyl)-2-prepenoic acid], the “influence on the dilation of the arteries” value in assay [1] (at a low concentration, by comparing the effect of different mixtures) is recorded as “significant influence on the dilation of the arteries”. For the same molecule, the EC50 in assay [1] (isolated SHR mesenteric arteries, K+ (40 mmol/L) pre-contraction, deduced by comparing different mixtures (Plackett-Burman design), corrected for solvent, read-out: EC50 of dilation of the arteries) was 7.5 µM; in assay [2], 0.03 µM. The “concentration at which maximum dilatation was obtained” value in assay [1] (isolated SHR mesenteric arteries, K+ (40 mmol/L) pre-contraction, mixtures 0.1-100 umol/L) turned out to be 100 µM.
